From patent EP0721336B1, “BENZAZOLE COMPOUNDS FOR USE IN THERAPY” (CANCER RESEARCH CAMPAIGN TECHNOLOGY LIMITED, priority 1993, dated 1995)
Converted amounts (≈) assume the structure as drawn. Where two headings read alike, the source gives them in different places. Marks after values point to notes of the source that are not given here.

Columns and labels:
MCF-7 mammary carcinoma = assay: In vivo activity against MCF-7 tumour implanted s.c.; details: i.p., 120 mg/kg/day, qd 6, 13, 20
EGFR = EGFR (Homo sapiens, UniProt P00533); assay: Displacement of iodinated EGF from EGFR; format: binding; details: 1µM, 10µM and 100µM
MCF 7-B (ER+) = assay: In vitro cytotoxicity assay; format: cell-based; details: Homo sapiens; 2nd series of experiments
Source text: (§1) This is illustrated in Tables 1 and 2 at the end of the present description which show in vitro test results obtained in various sets of experiments for the cytotoxic activity of this compound CJM 126 against a range of human tumour cell lines, expressed in terms of IC50 values (concentration or dosage required to reduce cell growth or proliferation by 50%) calculated from dose-effect curves plotted for cultures of the cells in question.
(§2) In carrying out the above in vitro studies, the method used for conducting the cytotoxicity assays was generally substantially as follows: • Cells were maintained in a continuous logarithmic culture in Dulbecco's medium supplemented with 10% fetal calf serum and penicillin (100 IU/ml) and streptomycin (100 µg/ml). The cells were mildly trypsinized for passage and for use in assays. On day zero, 100µl of trypsinized tumour cells (1 x 10^4/ml) were plated in the wells of 96-well flat-bottom microtiter plates. […] On day two 50µl of the highest drug concentration was added to the wells of column 12 and from there serially diluted 3-fold to column 1 by serial transfer of 50µl using an 8-channel micropipette. The final volume of column 1 was adjusted to 100µl. No additions were made to the wells of rows A and B, which served as controls. The plates were further incubated for 5 days at 37°C and 5% CO2 in air. Each compound was tested in duplicate. • On day 7 the test was terminated by the addition of 100µl saline containing 0.002% w/v propidium iodide (Sigma), 0.3% drawing ink (Staedtler "Marsmatic 745" - Trade Mark) and 0.5% Triton X-100. The plates were kept at 4°C overnight before reading on an inverted microscope equipped with an automated scanning stage. Fluorescence intensity was measured in arbitrary units by a photomultiplier. An HP-87 computer controlled the movement of the stage and also collected and processed the data from the multiplier. • For each compound tested a dose-response curve was obtained and the IC50 value (the drug concentration at 50% inhibition of cell growth) was calculated.

A204 rhabdomyosarcoma = assay: In vitro cytotoxicity assay; format: cell-based; details: Homo sapiens
Source text: as §1, §2

41M ovarian carcinoma = assay: In vitro cytotoxicity assay; format: cell-based; details: Homo sapiens; 2nd series of experiments
Source text: as §1, §2

MCF 7-T (ER-) = assay: In vitro cytotoxicity assay; format: cell-based; details: Homo sapiens; 2nd series of experiments
Source text: as §1, §2

SKBR3 mammary (ER-) = assay: In vitro cytotoxicity assay; format: cell-based; details: Homo sapiens, SK-BR-3
Source text: as §1, §2

T24 bladder carcinoma = assay: In vitro cytotoxicity assay; format: cell-based; details: Homo sapiens
Source text: as §1, §2

ZR 75 mammary (ER+) = assay: In vitro cytotoxicity assay; format: cell-based; details: Homo sapiens, ZR75
Source text: as §1, §2

T47D mammary (ER-) = assay: In vitro cytotoxicity assay; format: cell-based; details: Homo sapiens, 2nd series of experiments
Source text: as §1, §2

A2780/CisR = assay: In vitro cytotoxicity assay; format: cell-based; details: Homo sapiens, A2780cisR; 2nd series of experiments
Source text: as §1, §2

41M/CisP = assay: In vitro cytotoxicity assay; format: cell-based; details: Homo sapiens; 2nd series of experiments
Source text: as §1, §2

WiDr colon carcinoma = assay: In vitro cytotoxicity assay; format: cell-based; details: Homo sapiens
Source text: as §1, §2

[1] = tested on: MDA 231 mammary (EGFR+/erbB3+); assay: In vitro cytotoxicity assay; format: cell-based; details: Homo sapiens, MDA-MB-231
Source text: as §1, §2

SKOV-3 ovarian carcinoma = assay: In vitro cytotoxicity assay; format: cell-based; details: Homo sapiens, SK-OV-3; 2nd series of experiments
Source text: as §1, §2

CH 1/CisR = assay: In vitro cytotoxicity assay; format: cell-based; details: Homo sapiens, CH1cisR; 2nd series of experiments
Source text: as §1, §2

HT29 colon carcinoma = assay: In vitro cytotoxicity assay; format: cell-based; details: Homo sapiens, HT-29
Source text: as §1, §2

CH 1 ovarian carcinoma = assay: In vitro cytotoxicity assay; format: cell-based; details: Homo sapiens; 2nd series of experiments
Source text: as §1, §2

[2] = tested on: BO (T61) human mammary carcinomas; assay: In vivo activity against implanted BO tumour; design: species or system NMRI-nu/nu female mice; details: i.p., qd 27,34,41
A431 cells = assay: In vitro growth assay; format: cell-based; details: range of concentrations 0.1nM-10µM
Method: No effect was observed, for example, on the growth of A431 cells as a result of exposure to CJM 126 over a range of concentrations (0.1nM-10µM).
as §2, with “Each compound was tested in duplicate. • On day 7 the test was terminated by the addition of 100µl saline containing 0.002% w/v propidium iodide (Sigma), 0.3% drawing ink (Staedtler "Marsmatic 745" - Trade Mark) and 0.5% Triton X-100.” left out, “An HP-87 computer controlled the movement of the stage and also collected and processed the data from the multiplier. • For each compound tested a dose-response curve was obtained and the IC50 value (the drug concentration at 50% inhibition of cell growth) was calculated.” left out

EGFR tyrosine kinase = EGFR tyrosine kinase (Homo sapiens, UniProt P00533); assay: Western blot analyses with anti-phosphotyrosine primary antibody; format: cell-based; details: unstimulated or EGF stimulated
Aqueous solubility = format: physicochemical; details: water
Method: The latter was first obtained (as yellow crystals, m.p. 229-231°C, crystallised from methanol or dimethyl formamide) either via Route C (71% yield) from 2-aminothiophenol and 4-nitrobenzoyl chloride, or via Route D (10% yield) from the corresponding thiobenzanilide and potassium ferricyanide.

[3] = 2nd series of experiments, read-out: IC50

Chain of EGFR (P00533 25-1210): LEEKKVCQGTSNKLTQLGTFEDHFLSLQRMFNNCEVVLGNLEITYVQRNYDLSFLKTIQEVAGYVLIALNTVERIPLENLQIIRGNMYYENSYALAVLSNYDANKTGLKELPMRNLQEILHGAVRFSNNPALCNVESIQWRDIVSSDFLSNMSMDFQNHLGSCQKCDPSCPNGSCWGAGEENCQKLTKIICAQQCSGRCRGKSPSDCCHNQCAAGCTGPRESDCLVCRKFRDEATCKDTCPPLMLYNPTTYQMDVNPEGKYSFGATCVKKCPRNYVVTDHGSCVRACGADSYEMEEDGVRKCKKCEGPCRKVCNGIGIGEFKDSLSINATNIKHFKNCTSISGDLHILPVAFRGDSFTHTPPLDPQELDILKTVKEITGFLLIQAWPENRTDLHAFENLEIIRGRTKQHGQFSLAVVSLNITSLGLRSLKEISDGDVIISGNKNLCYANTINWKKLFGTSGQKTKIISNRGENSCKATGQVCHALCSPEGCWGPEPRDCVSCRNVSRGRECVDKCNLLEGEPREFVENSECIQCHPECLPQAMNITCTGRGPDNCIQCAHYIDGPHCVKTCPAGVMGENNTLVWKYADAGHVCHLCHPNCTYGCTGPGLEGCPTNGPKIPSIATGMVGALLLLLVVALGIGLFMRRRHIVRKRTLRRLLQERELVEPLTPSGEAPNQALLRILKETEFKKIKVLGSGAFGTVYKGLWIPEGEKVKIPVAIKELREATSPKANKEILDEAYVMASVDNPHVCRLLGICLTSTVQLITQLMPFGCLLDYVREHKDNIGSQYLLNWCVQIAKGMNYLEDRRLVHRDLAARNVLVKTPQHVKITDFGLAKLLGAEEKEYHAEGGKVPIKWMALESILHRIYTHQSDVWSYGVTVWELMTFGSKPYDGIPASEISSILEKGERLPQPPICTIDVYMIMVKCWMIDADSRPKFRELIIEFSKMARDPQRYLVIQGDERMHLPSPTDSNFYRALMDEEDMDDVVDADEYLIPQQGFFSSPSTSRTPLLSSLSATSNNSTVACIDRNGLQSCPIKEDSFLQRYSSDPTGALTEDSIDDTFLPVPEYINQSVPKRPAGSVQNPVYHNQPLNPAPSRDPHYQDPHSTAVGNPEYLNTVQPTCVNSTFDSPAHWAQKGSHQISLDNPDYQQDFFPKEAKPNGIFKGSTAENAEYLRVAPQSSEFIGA
Chain of EGFR tyrosine kinase (P00533 25-1210): as above

Nc1ccc(-c2nc3ccccc3s2)cc1 [CJM 126, 2-(4-aminophenyl)benzothiazole]
Relative tumour volume (T/C%) (MCF-7 mammary carcinoma; d9): 84% | Relative tumour volume (T/C%) (MCF-7 mammary carcinoma; d13): 47* % | Relative tumour volume (T/C%) (MCF-7 mammary carcinoma; d20): 38* % | Relative tumour volume (T/C%) (MCF-7 mammary carcinoma; d27): 27* % | Relative tumour volume (T/C%) (MCF-7 mammary carcinoma; d35): 27* % | Relative tumour volume (T/C%) (MCF-7 mammary carcinoma; d43): 43* % | BWC (%) (MCF-7 mammary carcinoma; relative to saline treated animals): -13% | displacement of iodinated EGF from EGFR (EGFR): no ability to displace | IC50 (MCF 7-B (ER+)): 62.2 µM | IC50 (A204 rhabdomyosarcoma; 1st series of experiments): 5.94 µg/mL | IC50 (A204 rhabdomyosarcoma; 2nd series of experiments): 26 µM | IC50 (41M ovarian carcinoma): 36 µM | IC50 (MCF 7-T (ER-)): 12.9 µM | IC50 (SKBR3 mammary (ER-); [3]): 0.026 µM | IC50 (SKBR3 mammary (ER-); SKBR3, read-out: estimated IC50): ~0.0259 µM | IC50 (T24 bladder carcinoma; 1st series of experiments): 16.9 µg/mL | IC50 (T24 bladder carcinoma; 2nd series of experiments): 75 µM | IC50 (ZR 75 mammary (ER+); [3]): 0.028 µM | IC50 (ZR 75 mammary (ER+); ZR 75, read-out: estimated IC50): ~0.0247 µM | IC50 (T47D mammary (ER-)): 44.1 µM | IC50 (A2780/CisR): 37 µM | IC50 (41M/CisP): 40 µM | IC50 (WiDr colon carcinoma; 1st series of experiments): 6.01 µg/mL | IC50 (WiDr colon carcinoma; 2nd series of experiments): 26 µM | IC50 [1, 3]: 0.017 µM | IC50 ([1]; MDA 231, read-out: estimated IC50): ~0.0172 µM | IC50 (SKOV-3 ovarian carcinoma): 64 µM | IC50 (CH 1/CisR): 33 µM | IC50 (HT29 colon carcinoma; 1st series of experiments): 7.57 µg/mL | IC50 (HT29 colon carcinoma; 2nd series of experiments): 33 µM | IC50 (CH 1 ovarian carcinoma): 22 µM | BWC ([2]; 1 mg/kg/day): -5 | Relative tumour volume (T/C%) ([2]; 1 mg/kg/day, d33): 173% | Relative tumour volume (T/C%) ([2]; 1 mg/kg/day, d41): 72% | Relative tumour volume (T/C%) ([2]; 1 mg/kg/day, d47): 25* % | Relative tumour volume (T/C%) ([2]; 1 mg/kg/day, d55): 67% | Relative tumour volume (T/C%) ([2]; 1 mg/kg/day, d61): 41* % | BWC ([2]; 10 mg/kg/day): -4 | Relative tumour volume (T/C%) ([2]; 10 mg/kg/day, d33): 107% | Relative tumour volume (T/C%) ([2]; 10 mg/kg/day, d41): 74% | Relative tumour volume (T/C%) ([2]; 10 mg/kg/day, d47): 55% | Relative tumour volume (T/C%) ([2]; 10 mg/kg/day, d55): 70% | Relative tumour volume (T/C%) ([2]; 10 mg/kg/day, d61): 52% | BWC ([2]; 100 mg/kg/day): -7 | Relative tumour volume (T/C%) ([2]; 100 mg/kg/day, d33): 137% | Relative tumour volume (T/C%) ([2]; 100 mg/kg/day, d41): 77% | Relative tumour volume (T/C%) ([2]; 100 mg/kg/day, d47): 87% | Relative tumour volume (T/C%) ([2]; 100 mg/kg/day, d55): 68% | Relative tumour volume (T/C%) ([2]; 100 mg/kg/day, d61): 52% | effect on growth (A431 cells): No effect | inhibition of EGFR tyrosine kinase activity (EGFR tyrosine kinase): no apparent inhibition | solubility (Aqueous solubility): ~3.8 µg/mL (≈ 16.8 µM)
